Results reported in ChEMBL document CHEMBL1221220, “Transport and signaling via the amino acid binding site of the yeast Gap1 amino acid transceptor” (Nat Chem Biol, 2009).
Residue numbers refer to the chain shown, from its start. Active and inactive are the calls of the source. No cut-off for these calls is given here.

Columns and labels:
[1] = system: T1, General amino-acid permease GAP1 (Saccharomyces cerevisiae), P19145 [I384C]; test: Induction of yeast Gap1 I384C mutant-mediated amino acid uptake at 2 mM in presence of 10 mM MTSEA treated before compound addition
T1 sequence (whole entry): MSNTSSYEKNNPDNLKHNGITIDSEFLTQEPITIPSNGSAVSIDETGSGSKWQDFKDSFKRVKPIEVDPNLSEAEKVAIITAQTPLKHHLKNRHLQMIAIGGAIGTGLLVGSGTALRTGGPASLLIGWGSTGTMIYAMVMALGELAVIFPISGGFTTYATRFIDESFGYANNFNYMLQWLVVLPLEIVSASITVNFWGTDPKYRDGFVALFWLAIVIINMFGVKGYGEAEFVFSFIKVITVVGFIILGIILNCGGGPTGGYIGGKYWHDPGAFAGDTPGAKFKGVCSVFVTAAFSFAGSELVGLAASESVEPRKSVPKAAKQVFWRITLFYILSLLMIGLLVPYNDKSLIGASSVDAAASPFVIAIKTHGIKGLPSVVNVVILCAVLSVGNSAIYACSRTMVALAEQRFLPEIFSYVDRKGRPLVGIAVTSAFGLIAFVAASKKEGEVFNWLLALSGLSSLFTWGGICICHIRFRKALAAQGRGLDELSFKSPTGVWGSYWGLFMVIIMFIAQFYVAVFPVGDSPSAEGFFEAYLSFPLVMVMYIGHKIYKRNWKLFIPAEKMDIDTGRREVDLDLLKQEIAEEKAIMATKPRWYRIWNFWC

Saccharomyces cerevisiae = test: Induction of yeast Gap1 L404 mutant-mediated trehalose activation at 10 mM
[2] = system: T2, General amino-acid permease GAP1 (Saccharomyces cerevisiae), P19145 [I382C]; test: Activation of yeast Gap1 I382C mutant-mediated amino acid uptake at 10 mM
T2 sequence (whole entry): T1 sequence (whole entry) with I382C, C384I

[3] = system: T3, General amino-acid permease GAP1 (Saccharomyces cerevisiae), P19145 [C397C]; test: Activation of yeast Gap1 C397C mutant-mediated amino acid uptake at 10 mM
T3 sequence (whole entry): T1 sequence (whole entry) with C384I

[4] = system: General amino-acid permease GAP1 (Saccharomyces cerevisiae), P19145 [V389C]; test: Induction of yeast Gap1 V389C mutant-mediated amino acid uptake at 2 mM in presence of 10 mM MTSEA treated before compound addition
[5] = system: T4, General amino-acid permease GAP1 (Saccharomyces cerevisiae), P19145 [R399C]; test: Induction of yeast Gap1 R399C mutant-mediated trehalose activation at 10 mM
T4 sequence (whole entry): T1 sequence (whole entry) with C384I, R399C

Sequence of General amino-acid permease GAP1 (Saccharomyces cerevisiae), P19145 [V389C] (P19145 whole entry V389C): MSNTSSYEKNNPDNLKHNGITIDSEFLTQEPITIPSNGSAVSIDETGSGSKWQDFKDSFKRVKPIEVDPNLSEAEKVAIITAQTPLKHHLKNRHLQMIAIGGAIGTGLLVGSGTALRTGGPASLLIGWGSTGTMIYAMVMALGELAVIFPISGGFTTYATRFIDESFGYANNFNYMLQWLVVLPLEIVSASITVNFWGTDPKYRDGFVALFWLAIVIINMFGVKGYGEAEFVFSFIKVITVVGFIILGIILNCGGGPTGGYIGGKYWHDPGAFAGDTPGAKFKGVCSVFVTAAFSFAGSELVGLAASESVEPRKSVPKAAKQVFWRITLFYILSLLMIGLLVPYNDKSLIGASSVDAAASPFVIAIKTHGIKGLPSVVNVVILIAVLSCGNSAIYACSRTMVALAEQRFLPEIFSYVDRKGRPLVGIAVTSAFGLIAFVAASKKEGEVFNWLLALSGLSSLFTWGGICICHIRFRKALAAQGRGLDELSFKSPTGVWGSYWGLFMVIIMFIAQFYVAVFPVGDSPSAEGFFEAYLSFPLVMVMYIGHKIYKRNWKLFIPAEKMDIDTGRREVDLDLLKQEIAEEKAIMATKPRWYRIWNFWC

Activity [1]: Active
Activity (Saccharomyces cerevisiae): inactive
Activity [2]: inactive
Activity [3]: inactive
inhibition [4]: inactive
Activity [5]: inactive
SMILES: NC(=O)NCCC[C@H](N)C(=O)O
